Here are results for 8 molecules from US7709235B2, “5-Substituted hydantoin racemase, DNA encoding the same, recombinant DNA, transformed cell, and process for production of optically active N-carbamylamino acid or optically active amino acid” (priority 2005, dated 2010).

For data set [1], the system named is purified hydantoin racemase. Description: Substrate specificity of purified hydantoin racemase. The class given is biochemical, Bacillus sp. KNK519HR. To be noted: purified enzyme; activity for L-5-(2-methylthioethyl)hydantoin taken at 100; 30° C., Tris-HCl pH 7.5; substrate 4-50 mM. On the procedure: (§1) Substrate specificity of purified hydantoin racemase was examined. First, 0.1 ml of purified hydantoin racemase obtained in Example 1 was added to each 0.9 ml of 50 mM Tris-HCl buffers (pH 7.5) containing 50 mM L-5-(2-methylthioethyl)hydantoin, 50 mM D-5-(2-methylthioethyl)hydantoin, 13 mM D-5-(1-mercapto-1-methyl)ethylhydantoin, 8 mM L-5-isobutylhydantoin, 50 mM L-5-(1-methylpropyl)hydantoin, and 4 mM L-5-benzylhydantoin, respectively. The mixtures were allowed to react at 30° C., and the reaction was terminated by adding 0.1 ml of 1N HCl. Except for the reaction using the substrate D-5-(1-mercapto-1-methyl)ethylhydantoin, the reaction was analyzed by diluting the supernatant of a centrifuged reaction mixture two times with ion exchange water, and by quantifying the D-5-substituted hydantoin compound generated in the reaction mixture, using HPLC. HPLC analysis was performed under the conditions given above. For the reaction using the substrate D-5-(1-mercapto-1-methyl)ethylhydantoin, the reaction mixture was analyzed by quantifying a sample that had been obtained by extracting the reaction mixture with 1 ml of ethyl acetate. Analysis was performed by performing HPLC under the following conditions. Column: CHIRALPAK AD-H (Daicel), eluent: hexane/isopropanol=9/1, flow rate: 1 ml/min., column temperature: 25° C., detection: 210 nm.

For data set [2], the system named is hydantoin racemase enzyme solution of transformant. As to the kind of experiment: Substrate specificity of hydantoin racemase of transformant. The data set is classed as biochemical, Escherichia coli HB101 (pBHR001). As to conditions: activity for L-5-(2-methylthioethyl)hydantoin taken at 100, method of Example 2. As to the method:
as §1
Using the hydantoin racemase enzyme solution of transformant obtained in Example 7, substrate specificity was examined according to the method of Example 2. The result is shown in Table 4 as relative activities, taking the activity for L-5-(2-methylthioethyl)hydantoin at 100.

For data set [3], the target named is T1, hydantoin racemase of Pseudomonas sp. (Pseudomonas sp., UniProt Q00924).
T1 sequence (Q00924 1-249): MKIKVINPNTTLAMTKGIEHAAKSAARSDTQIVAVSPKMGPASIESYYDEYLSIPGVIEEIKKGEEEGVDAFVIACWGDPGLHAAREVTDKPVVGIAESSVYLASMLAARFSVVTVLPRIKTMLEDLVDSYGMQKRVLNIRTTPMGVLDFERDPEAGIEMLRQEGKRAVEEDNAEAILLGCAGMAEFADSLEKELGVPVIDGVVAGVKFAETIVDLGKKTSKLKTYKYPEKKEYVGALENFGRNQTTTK
To be noted: Pseudomonas sp. enzyme; proportion of D-form at reaction time 10 minutes; L-5-(2-methylthioethyl)hydantoin = 100; cited from earlier work.

Data set [4] has as its system hydantoin racemase produced by Bacillus sp. KNK519HR. As to the kind of experiment: Substrate specificity with crude enzyme solution of Bacillus sp. KNK519HR (HPLC). The data set is classed as biochemical. As to conditions: activity for L-5-isobutylhydantoin taken at 100, 30° C., pH 7.5, HPLC of D-hydantoin. On the procedure:
Substrate specificity of hydantoin racemase produced by Bacillus sp. KNK519HR was examined using a crude enzyme solution of Bacillus sp. KNK519HR that was produced according to the procedure described in Example 1. First, 0.1 ml of crude enzyme solution was added to each 0.9 ml of 50 mM Tris-HCl buffers (pH 7.5) containing 4 mM L-5-benzylhydantoin, 50 mM L-5-(2-methylthioethyl)hydantoin, and 8 mM L-5-isobutylhydantoin, respectively. The mixtures were allowed to react at 30° C., and the reaction was terminated by adding 0.1 ml of 1N HCl. The supernatant of a centrifuged reaction mixture was diluted two times with ion exchange water, and the D-5-substituted hydantoin compound generated in the reaction mixture was quantified by HPLC. HPLC analysis was performed under the following conditions. Column: Chirobiotic T (4.6 mm×250 mm, ASTEC Inc., eluent: 0.01% (v/v) Triethylamine acetate (pH 6.8)/methanol=9/1, flow rate: 0.7 ml/min., column temperature: 35° C., detection: 210 nm. Further, 0.1 ml of crude enzyme solution of Bacillus sp. KNK519HR was added to 0.9 ml of 50 mM Tris-HCl buffer (pH 7.5) containing 50 mM 5-methylhydantoin, together with recombinant Escherichia coli having D-form selective hydantoinase activity for 1 ml of culture solution (described later), and recombinant Escherichia coli having D-form selective N-carbamylamino acid amidohydrolase activity for 1 ml of culture solution. The mixture was allowed to react at 30° C., and the reaction was terminated by adding 0.1 ml of 1N HCl. After neutralization with 1N NaOH, the reaction mixture was centrifuged and the D-alanine generated in the supernatant was quantified by an enzyme method using D-amino acid oxydase and peroxydase.

The test system of data set [5] is purified hydantoin racemase. Description: Measurement of Km value (Lineweaver-Burk plot). The data set is classed as biochemical, Bacillus sp. KNK519HR. As to conditions: FIG. 2. As to the method: A Km value for L-5-(2-methylthioethyl)hydantoin was determined from the Lineweaver-Burk plot.
Data set [6] relates to hydantoin racemase produced by Bacillus sp. KNK519HR. As to the kind of experiment: Substrate specificity with crude enzyme solution coupled with D-hydantoinase and D-N-carbamylamino acid amidohydrolase, D-alanine quantified by enzyme method. The data set is classed as biochemical. As to conditions: L-5-isobutylhydantoin = 100, 50 mM substrate. As to the method:
Substrate specificity of hydantoin racemase produced by Bacillus sp. KNK519HR was examined using a crude enzyme solution of Bacillus sp. KNK519HR that was produced according to the procedure described in Example 1. First, 0.1 ml of crude enzyme solution was added to each 0.9 ml of 50 mM Tris-HCl buffers (pH 7.5) containing 4 mM L-5-benzylhydantoin, 50 mM L-5-(2-methylthioethyl)hydantoin, and 8 mM L-5-isobutylhydantoin, respectively. The mixtures were allowed to react at 30° C., and the reaction was terminated by adding 0.1 ml of 1N HCl. The supernatant of a centrifuged reaction mixture was diluted two times with ion exchange water, and the D-5-substituted hydantoin compound generated in the reaction mixture was quantified by HPLC. HPLC analysis was performed under the following conditions. […] After neutralization with 1N NaOH, the reaction mixture was centrifuged and the D-alanine generated in the supernatant was quantified by an enzyme method using D-amino acid oxydase and peroxydase.
Quantification of D-alanine by the enzyme method was performed as follows. […] The mixture was allowed to react for 90 minutes, and an absorbance at 555 nm was measured to quantity the D-alanine generated in the reaction mixture. […]

The nature of data set [7]: Substrate inhibition of hydantoin racemase (crude enzyme solution). The class given is biochemical, Bacillus sp. KNK519HR. To be noted: L-5-(2-methylthioethyl)hydantoin as substrate between 50 mM and 80 mM; initial rate, 30° C., FIG. 7. As to the method:
Substrate inhibition of the hydantoin racemase produced by Bacillus sp. KNK519HR was examined using the crude enzyme solution prepared in Example 1. In a reaction mixture of 0.1-ml crude enzyme solution and each 0.9-ml of 50 mM Tris-HCl buffers (pH 7.5) respectively containing 5, 10, 50, and 80 mM L-5-(2-methylthioethyl)hydantoin, respectively, the reaction was performed at 30° C. for 10, 20, 30, and 40 minutes. After the reaction, hydantoin racemase activity was abolished by adding 0.1 ml of 1N HCl. The supernatant of the centrifuged reaction mixture was diluted two times with ion exchange water, and the D-5-(2-methylthioethyl)hydantoin generated in the reaction mixture was quantified by HPLC. HPLC analysis was performed under the same conditions used in Example 3. An initial reaction rate was determined at each initial substrate concentration. FIG. 7 represents a relationship between relative activity and initial substrate concentration.

Data set [8] can be described thus: Temperature stability and pH stability of the enzyme (remaining activity). The class given is physicochemical, Bacillus sp. KNK519HR. As to conditions: FIG. 5. On the procedure: Temperature stability of enzyme was examined as the remaining activity after 30 minutes of processing at different temperatures.
pH stability was examined. FIG. 6 represents remaining activity of enzyme after processing the enzyme at 30° C. for 16 hours at different pH, taking the activity of untreated enzyme at 100%. The enzyme was relatively stable in a pH range of 4.5 to 8.0.

A short description of data set [9]: Effective temperature range, optimum temperature, effective pH range and optimum pH of the enzyme. The data set is classed as biochemical, Bacillus sp. KNK519HR. As to conditions: FIG. 3, activity at 40° C. taken at 100%. As to the method: Assessment was made as to effective temperature range and optimum temperature. FIG. 3 represents relative activities at different temperatures, taking the activity at 40° C. at 100%. The optimum temperature of the enzyme was 40° C., and the enzyme desirably exerted its action at all temperatures in the evaluated temperature range of 25° C. to 65° C.
Assessment was made as to effective pH range and optimum pH. […] The enzyme exerted its action in a pH range of 6 to 10. The optimum pH range was 8 to 9.

Data set [10] in a line: Hydantoin racemase activity of purified enzyme, HPLC quantification of D-5-(2-methylthioethyl)hydantoin generated. The class given is biochemical, Bacillus sp. KNK519HR. To be noted: 30° C., 30 minutes, 50 mM Tris-HCl buffer (pH 7.5), 50 mM L-5-(2-methylthioethyl)hydantoin; 1 unit = 1 μmol D-form per minute. As to the method: In an embodiment of the present invention, the hydantoin racemase activity of the polypeptide can be measured by, for example, quantification of D-5-(2-methylthioethyl)hydantoin generated at 30° C. in 30 minutes in 50 mM Tris (tris(hydroxymethyl)aminomethane)-HCl buffer (pH 7.5) containing 50 mM L-5-(2-methylthioethyl)hydantoin, using high-performance liquid chromatography (HPLC) or the like.
The activity of the purified hydantoin racemase was determined by HPLC, by quantifying the amount of increase of D-5-(2-methylthioethyl)hydantoin generated at 30° C. in 30 minutes in a 50 mM Tris-HCl buffer (pH 7.5) containing 50 mM L-5-(2-methylthioethyl)hydantoin. HPLC analysis was performed under the following conditions. Column: Chirobiotic T (4.6 mm×250 mm, ASTEC Inc.), eluent: 0.01% (v/v) triethylamine acetate (pH 6.8)/methanol=9/1, flow rate: 0.7 ml/min., column temperature: 35° C., detection: 210 nm. Here, 1 unit was defined as the amount of enzyme that generated 1 μmol D-5-(2-methylthioethyl)hydantoin in one minute. Quantification of protein was performed according to the Lowry method, using BSA as a standard.

Usually Km stands for the concentration of substrate that gives half-maximal velocity.

Positions count from the first letter of the chain named.

On to `CCC(C)[C@@H]1NC(=O)NC1=O` (stereo partly drawn) [L-5-(1-methylpropyl)hydantoin], for which the entries for the “Relative Activity” value in [1], in data set [2] and in data set [3] were 2, 2 and 132, respectively.
As for `O=C1NC(=O)[C@H](Cc2ccccc2)N1` [L-5-benzylhydantoin], the “Relative Activity” value was 35 in data set [4], 52 in data set [1] and 35 in data set [2].
For `CSCC[C@H]1NC(=O)NC1=O` [D-5-(2-methylthioethyl)hydantoin], the “Relative Activity” value is given as 49 in [1] and 52 in data set [2].
Regarding `CSCC[C@@H]1NC(=O)NC1=O` [L-5-(2-methylthioethyl)hydantoin], the “Relative Activity” value was 61 in data set [4], 100 in data set [1], 100 in data set [2] and 100 in data set [3]. In addition, in data set [5], the Km is 304 µM.
Take `C[C@@H]1NC(=O)NC1=O` [L-5-methylhydantoin]: the “Relative Activity” value in data set [6] is listed as 20.
Consider `CC(C)(S)C1NC(=O)NC1=O` [D-5-(1-mercapto-1-methyl)ethylhydantoin], for which the “Relative Activity” value came out at 25 in data set [1] and 9 in data set [2].
On to `CC(C)C[C@@H]1NC(=O)NC1=O` [L-5-isobutylhydantoin], for which the figures for the “Relative Activity” value in data set [4], in data set [1] and in data set [2] were 100, 173 and 174, respectively.

B1: purified hydantoin racemase: hydantoin racemase from Bacillus sp. KNK519HR, polypeptide with the amino acid sequence of SEQ ID NO: 1 (protein, listed as Bacillus sp.)
chain: T1 sequence (Q00924 1-249) with L138V, T212A, R243L
For B1, the substrate inhibition result in data set [7] was “had substrate inhibition”. In addition, the “remaining activity (temperature stability)” value in [8] (after 30 minutes of processing at 30° C.) was 80%; in [8] (after 30 minutes of processing at 70° C.), “almost all activity was lost”. The molecule further returned an optimum temperature in data set [9] of 40 °C. Further, the specific activity in [10] is reported as 24.2 unit/mg protein.
